Results on one compound are retold here after the NIST ThermoML archive (doi:10.1016/j.jct.2014.04.011).

SMILES strings stand for the structures. Numbers after ± are expanded uncertainties.

The nature of data set [1]: Molar enthalpy of transition or fusion. To be noted: Crystal; DSC.
The conditions of data set [2]: Crystal; DTA.

As for `CC(C)(C)C(=O)C(Oc1ccc(Cl)cc1)n1ccnc1` (configuration not stated) [1-(4-Chlorophenoxy)-1-(imidazol-1-yl)-3,3-dimethylbutanone], the “Molar enthalpy of transition or fusion” value in data set [1] amounted to 6.93 ± 0.239 kcal/mol. Further, the Triple point temperature in data set [2] worked out at 372 ± 0.7 K.
